The test system of data set [1] is Human peripheral blood mononuclear cells. The experiment in a line: Human Concanavalin-A Proliferation Assay (Con HU Assay). The data set is classed as cell-based. The settings on record: Homo sapiens, PBMC, concanavalin-A stimulated human PBMC; for inhibition at 1 µM: 72 h, concentration 1 μm (in parentheses in the cell), 3 days, read-out: % Inhibition of proliferation (at concentrations of 1,10, or 100 μm); for IC50: tritiated thymidine. The method, boiled down:
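Histopaque-isolated human PBMC (50,000/well) were pre-incubated 15 min with compounds, then stimulated with concanavalin-A at 2.5 μg/ml final for 3 days at 37 °C, 5% CO2. Proliferation measured by 6 h pulse with 0.5 μCi/well [3H]thymidine and beta counting.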

This is an account of results in US20010044445A1, “AZOLE INHIBITORS OF CYTOKINE PRODUCTION” (priority 1999, published 2001).

As to `Cc1nnsc1C(=O)Nc1ccc(-n2nc(C(F)(F)F)cc2O)cc1` [Example 288, N-[4-[5-hydroxy-3-(trifluoromethyl)-1H-pyrazol-1-yl]phenyl]-4-methyl-1,2,3-thiadiazole-5-carboxamide], the melting point (as a rule, the temperature, or range, at which the solid turns liquid) lay in the range of 177 to 179 °C. Also, the inhibition at 1 µM in data set [1] stood at 16%.
Compound `Cc1nc(C)n(-c2ccc(NC(=O)c3snnc3C)cc2)n1` [Example 289, N-[4-(3,5-dimethyl-1H-1,2,4-triazol-1-yl)phenyl]-4-methyl-1,2,3-thiadiazole-5-carboxamide] returned a melting point of 144 to 145 °C. Besides, the inhibition at 1 µM in data set [1] came out at 22%.
Turning to `COc1cncc(Cl)c1C(=O)Nc1ccc(-n2nc(C(F)(F)F)cc2C(F)(F)F)cc1` [Example 291, N-(4-(3,5-bis(trifluoromethyl)-1H-pyrazol-1-yl)phenyl)-3-chloro-5-methoxyisonicotinamide], the melting point was 187 to 188 °C. Also, the half-inhibitory concentration (IC50) (as a rule, the midpoint of a concentration-inhibition curve) in data set [1] worked out at 411 nM.
`C=C(C)C(=O)Nc1ccc(-n2nc(C(F)(F)F)cc2C(F)(F)F)cc1` [Example 295, N-(4-(3,5-bis(trifluoromethyl)-1H-pyrazol-1-yl)phenyl)-2-methylacrylamide]: the melting point fell in the range of 160 to 162 °C. In data set [1], this compound showed an IC50 of 232 nM.
In the case of `O=C(Nc1ccc(-n2nc(C(F)(F)F)cc2C(F)(F)F)cc1)c1ccc(Cl)cc1F` [Example 296, N-(4-(3,5-bis(trifluoromethyl)-1H-pyrazol-1-yl)phenyl)-4-chloro-2-fluorobenzamide], the melting point lay in the range of 156 to 158 °C. In data set [1], this compound yielded a half-inhibitory concentration (IC50) of 44 nM.
The corresponding values for `Cc1nnsc1C(=O)Nc1ccc(-n2nc(C(F)(F)F)cc2C#N)cc1` [Example 302, N-(4-(5-cyano-3-(trifluoromethyl)-1H-pyrazol-1-yl)phenyl)-4-methyl-1,2,3-thiadiazole-5-carboxamide] are 193 to 195 °C and 358 nM.
`N#Cc1cc(C(F)(F)F)nn1-c1ccc(NC(=O)c2ccncc2)cc1` [Example 303, N-(4-(5-cyano-3-(trifluoromethyl)-1H-pyrazol-1-yl)phenyl)isonicotinamide] registered a melting point of 145 to 146 °C. In data set [1], this compound showed an IC50 of 487 nM.
The corresponding values for `N#Cc1cc(C(F)(F)F)nn1-c1ccc(NC(=O)c2ccncc2F)cc1` [Example 304, N-(4-(5-cyano-3-(trifluoromethyl)-1H-pyrazol-1-yl)phenyl)-3-fluoroisonicotinamide] are 161 to 162 °C and 266 nM.
The corresponding values for `N#Cc1cc(C(F)(F)F)nn1-c1ccc(NC(=O)c2cccnc2F)cc1` [Example 306, N-(4-(5-cyano-3-(trifluoromethyl)-1H-pyrazol-1-yl)phenyl)-2-fluoronicotinamide] are 150 to 151 °C and 265 nM.
For the compound `O=C(Nc1ccc(-n2nc(C(F)(F)F)cc2-c2cccnc2)cc1)c1ccccc1F` [Example 310, 2-fluoro-N-(4-(5-(3-pyridinyl)-3-(trifluoromethyl)-1H-pyrazol-1-yl)phenyl)benzamide], the melting point fell in the range of 138 to 140 °C. For the same compound, in data set [1], it took 335 nM to reach half-maximal inhibition (IC50).
The compound `O=C(Nc1ccc(-n2nc(C(F)(F)F)cc2-c2cccs2)cc1)c1ccncc1F` [Example 311, 3-fluoro-N-(4-(5-(2-thienyl)-3-(trifluoromethyl)-1H-pyrazol-1-yl)phenyl)isonicotinamide] had a melting point of 153 to 155 °C. In addition, the concentration for half-maximal inhibition (IC50) in data set [1] was 323 nM.
On to `COc1cc(C(F)(F)F)nn1-c1ccc(NC(=O)c2ccccc2F)cc1` [Example 313, 2-fluoro-N-(4-(5-methoxy-3-(trifluoromethyl)-1H-pyrazol-1-yl)phenyl)benzamide], for which the melting point fell in the range of 167 to 168 °C. The IC50 in data set [1] is 66 nM.
Turning to `COc1cc(C(F)(F)F)nn1-c1ccc(NC(=O)c2snnc2C)cc1` [Example 314, N-(4-(5-methoxy-3-(trifluoromethyl)-1H-pyrazol-1-yl)phenyl)-4-methyl-1,2,3-thiadiazole-5-carboxamide], the melting point is 159 to 160 °C. For the same compound, in data set [1], it took 246 nM to reach half-maximal inhibition (IC50).
`CC(=O)c1cc(C(F)(F)F)nn1-c1ccc(NC(=O)c2cccnc2F)cc1` [Example 315, N-(4-(5-acetyl-3-(trifluoromethyl)-1H-pyrazol-1-yl)phenyl)-2-fluoronicotinamide]: the melting point lay in the range of 188 to 189 °C. The same compound displayed a 50% inhibitory concentration (IC50) in data set [1] of 320 nM.
Compound `CSc1cc(C(F)(F)F)nn1-c1ccc(NC(=O)c2cccnc2F)cc1` [Example 316, 2-fluoro-N-(4-(5-(methylsulfanyl)-3-(trifluoromethyl)-1H-pyrazol-1-yl)phenyl)nicotinamide] yielded a melting point of 167 to 168 °C. In addition, in data set [1], the half-inhibitory concentration (IC50) came to 41 nM.
The matching figures for `COc1cc(C(F)(F)F)nn1-c1ccc(NC(=O)c2cccnc2F)cc1` [Example 317, 2-fluoro-N-(4-(5-methoxy-3-(trifluoromethyl)-1H-pyrazol-1-yl)phenyl)nicotinamide]: 153 to 154 °C and 186 nM.
`CSc1cc(C(F)(F)F)nn1-c1ccc(NC(=O)c2ccncc2F)cc1` [Example 320, 3-fluoro-N-(4-(5-(methylsulfanyl)-3-(trifluoromethyl)-1H-pyrazol-1-yl)phenyl)isonicotinamide] displayed a melting point of 142 to 143 °C. The compound also gave an IC50 in data set [1] of 43 nM.
The compound `COc1cc(C(F)(F)F)nn1-c1ccc(NC(=O)c2ccncc2F)cc1` [Example 321, 3-fluoro-N-(4-(5-methoxy-3-(trifluoromethyl)-1H-pyrazol-1-yl)phenyl)isonicotinamide] returned a melting point of 160 to 161 °C. Also, in data set [1], the 50% inhibitory concentration (IC50) was determined as 185 nM.
In turn, `Cc1nnsc1C(=O)Nc1ccc(-n2nc(C(F)(F)F)cc2OC(F)F)cc1` [Example 323, N-(4-(5-(difluoromethoxy)-3-(trifluoromethyl)-1H-pyrazol-1-yl)phenyl)-4-methyl-1,2,3-thiadiazole-5-carboxamide] had a melting point of 122 to 123 °C. The compound further returned a 50% inhibitory concentration (IC50) in data set [1] of 238 nM.
Turning to `O=C(Nc1ccc(-n2nc(C(F)(F)F)cc2OC(F)F)cc1)c1cccnc1F` [Example 324, N-(4-(5-(difluoromethoxy)-3-(trifluoromethyl)-1H-pyrazol-1-yl)phenyl)-2-fluoronicotinamide], the melting point lay in the range of 149 to 150 °C. In data set [1], this compound gave a half-maximal inhibitory concentration (IC50) of 89 nM.
The matching figures for `O=C(Nc1ccc(-n2nc(C(F)(F)F)cc2OC(F)F)cc1)c1ccncc1F` [Example 327, N-(4-(5-(difluoromethoxy)-3-(trifluoromethyl)-1H-pyrazol-1-yl)phenyl)-3-fluoroisonicotinamide]: 135 to 136 °C and 82 nM.
`O=C(Nc1ccc(-n2nc(C(F)(F)F)cc2Cl)cc1)c1ccncc1F` [Example 328, N-(4-(5-chloro-3-(trifluoromethyl)-1H-pyrazol-1-yl)phenyl)-3-fluoroisonicotinamide] yielded a melting point of 128 to 129 °C. Half-maximal inhibition in data set [1] (IC50) was put at 75 nM.
The compound `Cc1nnsc1C(=O)Nc1ccc(-n2nc(C(F)(F)F)cc2Br)cc1` [Example 335, N-(4-(5-bromo-3-(trifluoromethyl)-1H-pyrazol-1-yl)phenyl)-4-methyl-1,2,3-thiadiazole-5-carboxamide] yielded a melting point of 145 to 147 °C. Further, half-maximal inhibition in data set [1] (IC50) was put at 103 nM.
The corresponding values for `O=C(Nc1ccc(-n2nc(C(F)(F)F)nc2Cl)cc1)c1ccncc1F` [Example 336, N-(4-(5-chloro-3-(trifluoromethyl)-1H-1,2,4-triazol-1-yl)phenyl)-3-fluoroisonicotinamide] are 167 to 170 °C and 1830 nM.
With `Cc1nnsc1C(=O)Nc1ccc(-n2nc(-c3nccs3)cc2C#N)cc1` [Example 340, N-(4-(5-cyano-3-(1,3-thiazol-2-yl)-1H-pyrazol-1-yl)phenyl)-4-methyl-1,2,3-thiadiazole-5-carboxamide], the melting point was 230 °C. Also, the midpoint of inhibition in data set [1], the IC50, lay at 251 nM.
The corresponding values for `O=C(Nc1ccc(-n2nc(C3CCCO3)cc2C(F)(F)F)cc1)c1ccncc1F` (centres unmarked) [Example 345, 3-fluoro-N-(4-(3-tetrahydro-2-furanyl-5-(trifluoromethyl)-1H-pyrazol-1-yl)phenyl)isonicotinamide] are 116 to 118 °C and 273 nM.
In turn, `O=C(Nc1ccc(-n2nc(C(F)(F)F)cc2Cl)cc1)c1ccncc1Cl` [Example 346, 3-chloro-N-(4-(5-chloro-3-(trifluoromethyl)-1H-pyrazol-1-yl)phenyl)isonicotinamide] displayed a melting point of 184 to 185 °C. This compound also yielded a half-inhibitory concentration (IC50) in data set [1] of 117 nM.
In turn, `O=C(Nc1ccc(-n2nc(C(F)(F)F)cc2Br)cc1)c1cccc(F)c1F` [Example 348, N-(4-(5-bromo-3-(trifluoromethyl)-1H-pyrazol-1-yl)phenyl)-2,3-difluorobenzamide] had a melting point of 109 to 112 °C. Moreover, half-maximal inhibition in data set [1] (IC50) required 114 nM.
For the compound `O=C(Nc1ccc(-n2nc(C(F)(F)F)cc2Br)cc1)c1ccncc1Cl` [Example 349, N-(4-(5-bromo-3-(trifluoromethyl)-1H-pyrazol-1-yl)phenyl)-3-chloroisonicotinamide], the melting point is 79 to 82 °C. The compound further registered an IC50 in data set [1] of 224 nM.
`N#Cc1cc(C(F)(F)F)nn1-c1ccc(NC(=O)c2ccccc2Cl)cc1` [Example 350, 2-chloro-N-(4-(5-cyano-3-(trifluoromethyl)-1H-pyrazol-1-yl)phenyl)benzamide]: the melting point is 162 to 163 °C. The same compound registered an IC50 in data set [1] of 240 nM.
As to `N#Cc1cc(C(F)(F)F)nn1-c1ccc(NC(=O)c2ccncc2Cl)cc1` [Example 351, 3-chloro-N-(4-(5-cyano-3-(trifluoromethyl)-1H-pyrazol-1-yl)phenyl)isonicotinamide], the melting point is 221 to 222 °C. In data set [1], this compound came in with an IC50 of 309 nM.
